Assay results from patent US20200222564A1, “Compound Amphiphilic Peptide Nanomicelle, Preparation and Use Thereof” (Tianjin University, priority 2019, published 2020).

Test system: CNE-2Z cells
Experiment: CCK-8 cytotoxicity in CNE-2Z cells
Type: cell-based
Details: 0-100 μg/mL, 24 h in the dark
Procedure: First of all, the designed concentration (0, 20, 40, 60, 80 and 100 μg/mL) solution of nanomicelle and rose bengal were prepared with 1640 medium. CNE-2Z cells were seeded into a 96-well player at a density of 2×10^4 cells per well. Each sample with a certain concentration was added to 5 wells. The cytotoxicity of the pure rose bengal and the nanomicelle solution at different concentrations was compared. After culturing for 48 hours, the cells were grown to 80%, and the medium containing different volumes of nanomicelle and rose bengal solution was added instead of the original medium according to the experimental group setting. After an additional incubation for 24 h at 37° C. in the dark, fresh medium (100 μL) together with CCK-8 (10 μL) was added followed by […] on a microplate reader at a wavelength of 450 nm. Cell viability was calculated according to the formula, with the maximum and minimum of OD values excluded:
Cell Viability=average of (OD−ODblk)/average of (OD0−ODblk)×100%

## O=C([O-])c1c(Cl)c(Cl)c(Cl)c(Cl)c1-c1c2cc(I)c(=O)c(I)c-2oc2c(I)c([O-])c(I)cc12.[Na+].[Na+] [Rose Bengal]
  toxicity to CNE-2Z cells: less toxic
